Among the data in patent US20240336608A1, “IL4I1 INHIBITORS AND METHODS OF USE” (Merck Sharp & Dohme LLC, priority 2023, published 2024) are EC50 values, retold here.

Molecules are shown by their SMILES.

Broadly, the EC50 is the concentration at which the effect is half-maximal.

For the test, the target named is T1, recombinant IL4I1 (Homo sapiens, UniProt Q96RQ9).
T1 construct: purchased R&D Systems 5684-AO-020
T1 sequence (Q96RQ9 22-567): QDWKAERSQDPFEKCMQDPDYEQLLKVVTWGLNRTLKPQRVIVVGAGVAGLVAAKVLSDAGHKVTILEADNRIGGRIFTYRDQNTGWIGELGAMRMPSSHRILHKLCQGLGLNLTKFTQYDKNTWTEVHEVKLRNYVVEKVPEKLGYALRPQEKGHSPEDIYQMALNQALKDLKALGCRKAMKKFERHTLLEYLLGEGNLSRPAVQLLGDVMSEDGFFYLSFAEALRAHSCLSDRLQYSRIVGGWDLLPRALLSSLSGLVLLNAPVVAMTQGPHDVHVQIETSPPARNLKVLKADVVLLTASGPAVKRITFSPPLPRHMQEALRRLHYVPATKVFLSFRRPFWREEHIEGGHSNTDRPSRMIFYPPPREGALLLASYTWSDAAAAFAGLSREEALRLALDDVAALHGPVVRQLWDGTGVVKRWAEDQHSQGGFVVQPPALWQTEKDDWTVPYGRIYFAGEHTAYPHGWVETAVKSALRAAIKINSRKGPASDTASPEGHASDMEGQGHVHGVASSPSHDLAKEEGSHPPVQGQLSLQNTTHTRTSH
In words: IL4I1 Enzymatic Assay (Amplex Red/HRP coupled detection of H2O2, fluorescence). The settings on record: 1 nM recombinant IL4I1; four-hour pre-incubation with compound; 1 mM each Phe, Tyr, Trp; ten-point titration. The class given is biochemical. The gist of the method: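 Recombinant IL4I1 (1 nM final) pre-incubated 4 h at ambient temperature with compound (0.5% DMSO) in 50 mM Hepes pH 7.0, 0.005% Tween20; reaction started with 1 mM each Phe/Tyr/Trp plus excess Amplex Red/HRP, run 120 min. H2O2 read as resorufin fluorescence; EC50 from 10-point four-parameter fit.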
As for `Cc1ccc(-n2cc(C(=O)NCc3nnc(-c4cn[nH]c4)s3)nn2)c(C)n1` [Example 300, N-((5-(1H-pyrazol-4-yl)-1,3,4-thiadiazol-2-yl)methyl)-1-(2,6-dimethylpyridin-3-yl)-1H-1,2,3-triazole-4-carboxamide], the concentration for a half-maximal effect (EC50) is 22 nM.

As to `Cc1nc(OC(F)F)ccc1-n1cc(C(=O)NCc2nnc(-c3ccccc3)s2)nn1` [Example 301, 1-(6-(difluoromethoxy)-2-methylpyridin-3-yl)-N-((5-phenyl-1,3,4-thiadiazol-2-yl)methyl)-1H-1,2,3-triazole-4-carboxamide], the 50% effective concentration (EC50) is 8 nM.

With `O=C(NCc1nnc(-c2ccccc2)s1)c1cn(C[C@H](F)CO)nn1` [Example 302, (S)-1-(2-fluoro-3-hydroxypropyl)-N-((5-phenyl-1,3,4-thiadiazol-2-yl)methyl)-1H-1,2,3-triazole-4-carboxamide], the EC50 worked out at 5 nM.

For the compound `C[C@H](CO)n1cc(C(=O)NCc2nnc(-c3ccccc3)s2)nn1` [Example 303, (R)-1-(1-hydroxypropan-2-yl)-N-((5-phenyl-1,3,4-thiadiazol-2-yl)methyl)-1H-1,2,3-triazole-4-carboxamide], the half-maximal effective concentration (EC50) came out at 6 nM.

As to `CC(C)n1cc(C(=O)NCc2nnc(-c3ccccc3)s2)nn1` [Example 304, 1-isopropyl-N-((5-phenyl-1,3,4-thiadiazol-2-yl)methyl)-1H-1,2,3-triazole-4-carboxamide], the EC50 was 4 nM.

Take `O=C(NCc1nnc(-c2ccccc2)s1)c1cn(C2CCOC2)nn1` (stereo not shown) [Example 305, N-((5-phenyl-1,3,4-thiadiazol-2-yl)methyl)-1-(tetrahydrofuran-3-yl)-1H-1,2,3-triazole-4-carboxamide]: the EC50 was 29 nM.

`O=C(NCc1nnc(-c2ccccc2)s1)c1cnnn1C1CCOC1` (stereo not shown) [Example 306, N-((5-phenyl-1,3,4-thiadiazol-2-yl)methyl)-1-(tetrahydrofuran-3-yl)-1H-1,2,3-triazole-5-carboxamide]: the EC50 amounted to 654 nM.

Consider `O=C(NCc1nnc(-c2ccccc2)s1)c1cn(C2CS(=O)(=O)C2)nn1` [Example 307, 1-(1,1-dioxidothietan-3-yl)-N-((5-phenyl-1,3,4-thiadiazol-2-yl)methyl)-1H-1,2,3-triazole-4-carboxamide], for which the EC50 turned out to be 73 nM.

Consider `CS(=O)(=O)Cn1cc(C(=O)NCc2nnc(-c3ccccc3)s2)nn1` [Example 308, 1-((methylsulfonyl)methyl)-N-((5-phenyl-1,3,4-thiadiazol-2-yl)methyl)-1H-1,2,3-triazole-4-carboxamide], for which the concentration for a half-maximal effect (EC50) turned out to be 75 nM.

Regarding `O=C(NCc1nnc(-c2ccccc2)s1)c1cn(-c2ccncn2)nn1` [Example 309, N-((5-phenyl-1,3,4-thiadiazol-2-yl)methyl)-1-(pyrimidin-4-yl)-1H-1,2,3-triazole-4-carboxamide], the EC50 came to 720 nM.

For `O=C(NCc1nnc(-c2ccccc2)s1)c1cn(-c2ccccn2)nn1` [Example 310, N-((5-phenyl-1,3,4-thiadiazol-2-yl)methyl)-1-(pyridin-2-yl)-1H-1,2,3-triazole-4-carboxamide], the EC50 is 182 nM.

In the case of `O=C(NCc1nnc(-c2ccccc2)s1)c1cn(-c2cnccn2)nn1` [Example 311, N-((5-phenyl-1,3,4-thiadiazol-2-yl)methyl)-1-(pyrazin-2-yl)-1H-1,2,3-triazole-4-carboxamide], the EC50 came out at 294 nM.

Consider `CC(C)(C(N)=O)n1cc(C(=O)NCc2nnc(-c3ccccc3)s2)nn1` [Example 312, 1-(1-amino-2-methyl-1-oxopropan-2-yl)-N-((5-phenyl-1,3,4-thiadiazol-2-yl)methyl)-1H-1,2,3-triazole-4-carboxamide], for which the EC50 was found to be 12 nM.

For `CC(C)(C#N)n1cc(C(=O)NCc2nnc(-c3ccccc3)s2)nn1` [Example 313, 1-(2-cyanopropan-2-yl)-N-((5-phenyl-1,3,4-thiadiazol-2-yl)methyl)-1H-1,2,3-triazole-4-carboxamide], the half-maximal effective concentration (EC50) was determined as 26 nM.

For the compound `Cc1ccc(-n2cc(C(=O)NCc3cc(-c4ccncc4)no3)nn2)c(C)n1` [Example 314, 1-(2,6-dimethylpyridin-3-yl)-N-((3-(pyridin-4-yl)isoxazol-5-yl)methyl)-1H-1,2,3-triazole-4-carboxamide], the half-maximal effective concentration (EC50) is 12 nM.

`Cc1ncccc1-n1cc(C(=O)NCc2nnc(-c3ccccc3)s2)nn1` [Example 315, 1-(2-methylpyridin-3-yl)-N-((5-phenyl-1,3,4-thiadiazol-2-yl)methyl)-1H-1,2,3-triazole-4-carboxamide]: the concentration for a half-maximal effect (EC50) stood at 86 nM.

Consider `O=C(NCc1nnc(-c2ccccc2)s1)c1cn(-c2cncnc2)nn1` [Example 316, N-((5-phenyl-1,3,4-thiadiazol-2-yl)methyl)-1-(pyrimidin-5-yl)-1H-1,2,3-triazole-4-carboxamide], for which the EC50 was 241 nM.

For the compound `CC(C)(O)c1cc(C(=O)NCc2nnc(-c3ccccc3)s2)no1` [Example 317, 5-(2-hydroxypropan-2-yl)-N-((5-phenyl-1,3,4-thiadiazol-2-yl)methyl)isoxazole-3-carboxamide], the half-maximal effective concentration (EC50) is 21 nM.

In the case of `CC(C)(C(N)=O)n1cc(C(=O)NCc2nnc(-c3ccncc3)s2)nn1` [Example 320, 1-(1-amino-2-methyl-1-oxopropan-2-yl)-N-((5-(pyridin-4-yl)-1,3,4-thiadiazol-2-yl)methyl)-1H-1,2,3-triazole-4-carboxamide], the half-maximal effective concentration (EC50) is 27 nM.

Consider `CNC(=O)C(C)(C)n1cc(C(=O)NCc2nnc(-c3ccncc3)s2)nn1` [Example 321, 1-(2-methyl-1-(methylamino)-1-oxopropan-2-yl)-N-((5-(pyridin-4-yl)-1,3,4-thiadiazol-2-yl)methyl)-1H-1,2,3-triazole-4-carboxamide], for which the EC50 came out at 51 nM.

As for `CNC(=O)C(C)(C)n1cc(C(=O)NCc2nnc(-c3ccccc3)s2)nn1` [Example 322, 1-(2-methyl-1-(methylamino)-1-oxopropan-2-yl)-N-((5-phenyl-1,3,4-thiadiazol-2-yl)methyl)-1H-1,2,3-triazole-4-carboxamide], the EC50 was 26 nM.

Turning to `CC(C)(O)Cn1cc(C(=O)NCc2nnc(-c3ccccc3)s2)nn1` [Example 323, 1-(2-hydroxy-2-methylpropyl)-N-((5-phenyl-1,3,4-thiadiazol-2-yl)methyl)-1H-1,2,3-triazole-4-carboxamide], the EC50 is 205 nM.

Regarding `Cc1ccc(-n2cc(C(=O)NCc3nnc(C4CCCCC4)s3)nn2)c(C)n1` [Example 324, N-((5-cyclohexyl-1,3,4-thiadiazol-2-yl)methyl)-1-(2,6-dimethylpyridin-3-yl)-1H-1,2,3-triazole-4-carboxamide], the concentration for a half-maximal effect (EC50) came out at 274 nM.

Consider `Cc1ccc(-n2cc(C(=O)NCc3nnc(C4CCCC4)s3)nn2)c(C)n1` [Example 325, N-((5-cyclopentyl-1,3,4-thiadiazol-2-yl)methyl)-1-(2,6-dimethylpyridin-3-yl)-1H-1,2,3-triazole-4-carboxamide], for which the concentration giving a half-maximal response (EC50) was found to be 274 nM.

Regarding `Cc1ccc(-n2cc(C(=O)NCc3ccc(C4CCCCC4)nn3)nn2)c(C)n1` [Example 326, N-((6-cyclohexylpyridazin-3-yl)methyl)-1-(2,6-dimethylpyridin-3-yl)-1H-1,2,3-triazole-4-carboxamide], the EC50 is 263 nM.

Turning to `CC(C)(O)c1cc(C(=O)NCc2nnc(-c3ccccc3)s2)on1` [Example 328, 3-(2-hydroxypropan-2-yl)-N-((5-phenyl-1,3,4-thiadiazol-2-yl)methyl)isoxazole-5-carboxamide], the EC50 was determined as 306 nM.

For the compound `O=C(NCc1nnc(-c2ccccc2)s1)c1cn(CC(F)(F)C(=O)O)nn1` [Example 331, 2,2-difluoro-3-(4-(((5-phenyl-1,3,4-thiadiazol-2-yl)methyl)carbamoyl)-1H-1,2,3-triazol-1-yl)propanoic acid], the concentration giving a half-maximal response (EC50) is 382 nM.

On to `NC(=O)C(F)(F)Cn1cc(C(=O)NCc2nnc(-c3ccccc3)s2)nn1` [Example 332, 1-(3-amino-2,2-difluoro-3-oxopropyl)-N-((5-phenyl-1,3,4-thiadiazol-2-yl)methyl)-1H-1,2,3-triazole-4-carboxamide], for which the 50% effective concentration (EC50) came out at 8 nM.

As to `Cc1nc(C(N)=O)ccc1-n1cc(C(=O)NCc2nnc(-c3ccccc3)s2)nn1` [Example 333, 6-methyl-5-(4-(((5-phenyl-1,3,4-thiadiazol-2-yl)methyl)carbamoyl)-1H-1,2,3-triazol-1-yl)picolinamide], the concentration giving a half-maximal response (EC50) was 6 nM.

On to `Cc1nc(C(C)(C)O)ccc1-n1cc(C(=O)NCc2nnc(-c3ccccc3)s2)nn1` [Example 334, 1-(6-(2-hydroxypropan-2-yl)-2-methylpyridin-3-yl)-N-((5-phenyl-1,3,4-thiadiazol-2-yl)methyl)-1H-1,2,3-triazole-4-carboxamide], for which the EC50 is 446 nM.

For `Cc1nc(C#N)ccc1-n1cc(C(=O)NCc2nnc(-c3ccccc3)s2)nn1` [Example 335, 1-(6-cyano-2-methylpyridin-3-yl)-N-((5-phenyl-1,3,4-thiadiazol-2-yl)methyl)-1H-1,2,3-triazole-4-carboxamide], the EC50 stood at 10 nM.
